Measured values: the Deep4Chem optical property database

Assay: photoluminescence quantum yield (fraction); solvent given as SMILES
[1] = in c1ccc2c(c1)c1ccccc1n2-c1ccc(-c2ccc(-n3c4ccccc4c4ccccc43)cc2)cc1

For `F[B-]1(F)n2c(c3cccc4cccc2c43)=Nc2ccc3ccccc3[n+]21`, the photoluminescence quantum yield (in C1CCOC1) was 0.98, the photoluminescence quantum yield (in CC#N) was 0.99 and the photoluminescence quantum yield (in CCCCCC) was 0.63. It also gave a photoluminescence quantum yield (in Cc1ccccc1) of 0.99 and a photoluminescence quantum yield (in ClCCl) of 0.99.
Molecule `COc1c(-c2c(OC)c3cccc4ccc5oc(=O)cc2c5c43)c2cc(=O)oc3ccc4cccc1c4c32` has a photoluminescence quantum yield (in CC1CCCO1) of 0.35.
`C(=C(c1ccccc1)c1ccccc1)c1ccc(-c2ccc(-c3nc4c5ccccc5c5ccccc5c4n3-c3cccc(-c4ccc(C=C(c5ccccc5)c5ccccc5)cc4)c3)cc2)cc1` gave a photoluminescence quantum yield (in C1CCOC1) of 0.145.
With `[O-][n+]1c(/C=C/c2ccccc2)nc(N2CCOCC2)c2c1CCCC2` the photoluminescence quantum yield (in ClCCl) was 0.21.
Work on `c1ccc(CO[Si]23n4c5c6ccccc6c4/N=C4N=C(/N=c6/c7ccccc7c(n62)=c2c6ccccc6c(n23)=N5)c2ccccc2\4)cc1` (stereo not given) yielded a photoluminescence quantum yield (in CN(C)C=O) of 0.24.
Molecule `CC(C)(C)c1ccc(-c2c3ccccc3c3n2[B-](F)(F)[N+]2=Cc4c5ccccc5c(-c5ccc(C(C)(C)C)cc5)n4[B-](F)(F)[N+]2=C3)cc1` has a photoluminescence quantum yield (in CC#N) of 0.26, a photoluminescence quantum yield (in CCCCCC) of 0.34 and a photoluminescence quantum yield (in CN(C)C=O) of 0.28. It also gave a photoluminescence quantum yield (in Cc1ccccc1) of 0.34 and a photoluminescence quantum yield (in ClCCl) of 0.34.
In the case of `COc1ccc(-c2nc3c([nH]2)=C2C=C(Cl)S[C@@]2(C)[C@]2(C)SC(Cl)=CC=32)cc1`, the photoluminescence quantum yield (in CC#N) is reported as 0.002.
`Cc1ccc2nc3cc4ccccc4cc3c(-c3ccccc3)c2c1` showed a photoluminescence quantum yield (in ClCCl) of 0.47.
In the case of `C(#Cc1ccc2ncsc2c1)c1ccc(N(c2ccccc2)c2ccccc2)cc1`, the photoluminescence quantum yield (in Cc1ccccc1) is reported as 0.23.
Molecule `COCCOCCOCCOCCOc1ccc(OCCOCCOCCOCCOC)c(C=O)c1` has a photoluminescence quantum yield (in CC(C)(C)O) of 0.19, a photoluminescence quantum yield (in CC(C)CO) of 0.29 and a photoluminescence quantum yield (in CC(C)O) of 0.24. For the same molecule, the photoluminescence quantum yield (in CCCCO) was 0.32, the photoluminescence quantum yield (in CCCO) was 0.27 and the photoluminescence quantum yield (in CCO) was 0.25. The photoluminescence quantum yield (in CN(C)C=O) was 0.02, the photoluminescence quantum yield (in CNC=O) was 0.1 and the photoluminescence quantum yield (in CO) was 0.22. The photoluminescence quantum yield (in NC=O) was 0.43 and the photoluminescence quantum yield (in O) was 0.11.
For `C/C(=N\Nc1ccc(C#N)cc1)c1cccc(/C(C)=N/Nc2ccc(C#N)cc2)c1`, the photoluminescence quantum yield (in CO) was 0.14.
Work on `COc1cc2c(cc1-c1ccc([N+](=O)[O-])cc1)Cc1c3c(c4c(c1-2)-c1cc(OC)c(-c2ccc([N+](=O)[O-])cc2)cc1C4)C(=O)N(CCC(C)C)C3=O` yielded a photoluminescence quantum yield (in C1CCOC1) of 0.11.
`C[Si]1(C)O[Si](C)(C)c2cc3c(-c4ccccc4F)c4cc(Cl)ccc4nc3cc21` showed a photoluminescence quantum yield (in ClCCl) of 0.56.
In the case of `CC(C)(C)NC(=O)c1cccc2ccc3c4ccccc4c4ccccc4c3c12`, the photoluminescence quantum yield (in ClCCl) is reported as 0.03.
With `CCCCn1c2ccc(C#N)cc2c2cc(C#N)cc(-c3ccc(N(c4ccccc4)c4ccccc4)cc3)c21` the photoluminescence quantum yield (in ClCCl) was 0.65.
Work on `CCCCCCN1C(=O)c2cccc3c(-c4sc(-c5ccc6c7c(cccc57)C(=O)N(CCCCCC)C6=O)c5c4OCCO5)ccc(c23)C1=O` yielded a photoluminescence quantum yield (in ClC(Cl)Cl) of 0.22.
`C(=C\c1ccccn1)/c1ccc(N(c2ccc(/C=C/c3ccccn3)cc2)c2ccc(-c3nc4ccccc4nc3-c3ccc(N(c4ccc(/C=C/c5ccccn5)cc4)c4ccc(/C=C/c5ccccn5)cc4)cc3)cc2)cc1` gave a photoluminescence quantum yield (in C1CCOC1) of 0.55.
For `COC(=O)c1ccc(/C=C2\C=C(c3ccccc3)OC2=O)cc1`, the photoluminescence quantum yield (in C1COCCO1) was 0.007.
For `COc1ccc(-c2cc(N3CCCCC3)c(C#N)c3c2-c2cccc4cccc-3c24)cc1`, the photoluminescence quantum yield (in O) was 0.36.
In the case of `COc1ccc(C(=O)NN2C3=C(CC4=C2CCCC4=O)C(=O)CCC3)cc1`, the photoluminescence quantum yield (in CC#N) is reported as 0.59, the photoluminescence quantum yield (in CC(C)=O) is reported as 0.48 and the photoluminescence quantum yield (in CCCCCO) is reported as 0.6. For the same molecule, the photoluminescence quantum yield (in CO) was 0.32, the photoluminescence quantum yield (in ClC(Cl)Cl) was 0.57 and the photoluminescence quantum yield (in ClCCl) was 0.57.
Work on `c1ccc(-c2ccnc(-c3ccccc3)n2)cc1` yielded a photoluminescence quantum yield (in ClC(Cl)Cl) of 0.51.
`CCCCCOc1cc2oc(=O)c3c4ccc(N)cc4c4ccc5cccc6c(c1)c2c3c4c56` gave a photoluminescence quantum yield (in C1CCOC1) of 0.486.
In the case of `N#Cc1c(-n2nnc3ccc(Cl)cc32)n([C@H]2C[C@H](O)[C@@H](CO)O2)c2ncnc(N)c12`, the photoluminescence quantum yield (in CO) is reported as 0.008.
With `C(#Cc1nc(C#Cc2ccccc2)c(C#Cc2ccccc2)c(C#Cc2ccccc2)c1C#Cc1ccccc1)c1ccccc1` the photoluminescence quantum yield (in ClCCl) was 0.55.
Molecule `CCCCCCCCCC1(CCCCCCCCC)c2cc(C#Cc3ccc(C#Cc4ccc(N(CCCCCC)CCCCCC)cc4)cc3)ccc2-c2ccc(C#Cc3ccc(C#Cc4ccc(N(CCCCCC)CCCCCC)cc4)cc3)cc21` has a photoluminescence quantum yield (in Cc1ccccc1) of 0.82.
Work on `CC(C)(C)c1ccc2c(c1)c1cc(C(C)(C)C)ccc1n2-c1ccc(-c2ccc3c(c2)C(=O)c2ccc(-c4ccc(-n5c6ccc(C(C)(C)C)cc6c6cc(C(C)(C)C)ccc65)cc4)cc2C3=O)cc1` yielded a photoluminescence quantum yield (in Cc1ccccc1) of 0.6 and a photoluminescence quantum yield [1] of 0.65.
With `N#CC1=C(N)n2c(=O)c3ccccc3c(=O)n2C1c1ccccc1` (stereo not given) the photoluminescence quantum yield (in CS(C)=O) was 0.057.
With `C1=[N+](c2ccccc2)[B-](c2ccccc2)(c2ccccc2)Oc2c1ccc1c3c(ccc21)C=[N+](c1ccccc1)[B-](c1ccccc1)(c1ccccc1)O3` the photoluminescence quantum yield (in Cc1ccccc1) was 0.7 and the photoluminescence quantum yield (in ClCCl) was 0.76.
`COCCOCCOc1cc(C=O)c(OCCOCCOC)cc1C=O` gave a photoluminescence quantum yield (in CC(C)(C)O) of 0.12, a photoluminescence quantum yield (in CC(C)CO) of 0.09 and a photoluminescence quantum yield (in CC(C)O) of 0.08. For the same molecule, the photoluminescence quantum yield (in CCCCO) was 0.14, the photoluminescence quantum yield (in CCCO) was 0.15 and the photoluminescence quantum yield (in CCO) was 0.15. For the same molecule, the photoluminescence quantum yield (in CN(C)C=O) was 0.05, the photoluminescence quantum yield (in CNC=O) was 0.03 and the photoluminescence quantum yield (in CO) was 0.22. The photoluminescence quantum yield (in NC=O) was 0.26 and the photoluminescence quantum yield (in O) was 0.55.
Work on `O=C1c2ccc3c4ccc5c6c(ccc(c7ccc(c2c37)C(=O)N1c1ccc(Cl)cc1)c64)C(=O)N(c1ccc(Cl)cc1)C5=O` yielded a photoluminescence quantum yield (in CN(C)C=O) of 0.84.
Work on `CC1=c2c3c4cccc5cccc(c=3c(C)[n+]2[B-](F)(F)n2c(C)c3cc6c(-c7ccccc7)c7c(c(-c8ccccc8)c6cc3c21)-c1cccc2cccc-7c12)c54` yielded a photoluminescence quantum yield (in ClCCl) of 0.7.
With `CCOC(=O)c1cc(C(=O)OCC)c2ccc(N(C)C)cc2n1` the photoluminescence quantum yield (in CCO) was 0.41.
With `Cc1cc(C)c(C2=C3C=CC=[N+]3[B-]3(F)Oc4cc(O)cc5c6ccc(C)cc6c6cc2n3c6c45)c(C)c1` (stereo not given) the photoluminescence quantum yield (in ClC(Cl)Cl) was 0.35.
`CCC12C(=C3C(=C4c5ccc(-c6ccc(C(C)=O)s6)cc5S(=O)(=O)C41CC)C(F)(F)C(F)(F)C3(F)F)c1ccc(-c3ccc(C(C)=O)s3)cc1S2(=O)=O` (stereo not given) showed a photoluminescence quantum yield (in C1COCCO1) of 0.61.
`c1ccc(-c2cnc3nn4ccccc4c3n2)cc1` gave a photoluminescence quantum yield (in C1CCOC1) of 0.96.
Molecule `COc1cccc(OC)c1-c1c2ccc(=[N+]3CCNCC3)cc-2oc2cc(N3CCNCC3)ccc12` has a photoluminescence quantum yield (in CCO) of 0.008 and a photoluminescence quantum yield (in O) of 0.14.
With `Cc1ccc(C2=C3C=C4C(=[N+]3[B-](F)(F)n3c2cc2c3-c3ccccc3C23c2ccccc2-c2ccccc23)c2ccccc2C42c3ccccc3-c3ccccc32)cc1` the photoluminescence quantum yield (in C1CCOC1) was 0.67.
For `COc1cc2oc(=O)c3c4ccc(C=O)cc4c4ccc5cccc6c(c1)c2c3c4c56`, the photoluminescence quantum yield (in C1CCOC1) was 0.459.
For `O=C(/C=C(\O)c1ccc(N2c3ccccc3Oc3ccccc32)cc1)c1ccc(N2c3ccccc3Oc3ccccc32)cc1`, the photoluminescence quantum yield [1] was 0.68.
`c1ccc2c(c1)-c1ccccc1C21c2ccccc2-c2c1c1c3ccccc3ccc1c1ccccc21` gave a photoluminescence quantum yield (in Cc1ccccc1) of 0.61.
`C1=C(c2ccccc2)C2=Nc3c(-c4ccccc4)cc4n3[B-]3(Oc5ccccc5C1=[N+]23)Oc1ccccc1-4` (stereo not given) showed a photoluminescence quantum yield (in Cc1ccccc1) of 0.51.
`COc1cccc(OC)c1-c1c2ccccc2c(-c2c(OC)cccc2OC)c2ccccc12` gave a photoluminescence quantum yield (in C1CCCCC1) of 0.94.
With `c1ccc(-c2nc(-c3cccc4ccccc34)n3ccccc23)cc1` the photoluminescence quantum yield (in ClCCl) was 0.125.
For `Cc1ccc(-c2ccc(-c3ccc(-c4ccc(-c5ccc(C)cc5)cc4)c(/C(=C(/c4ccccc4)c4cc(-c5ccc(-c6ccc(C)cc6)cc5)ccc4-c4ccc(-c5ccc(C)cc5)cc4)c4ccccc4)c3)cc2)cc1`, the photoluminescence quantum yield (in C1CCOC1) was 0.3.
For `c1ccc(-p2c(-c3cccs3)cc3ccccc32)cc1` (stereo not given), the photoluminescence quantum yield (in C1CCOC1) was 0.07.
`COCCC1=Cc2nc1ccc1[nH]c(cc1CCOC)c1nc(c(OC)cc3[nH]c2cc3CCOC)C(CCOC)=C1` showed a photoluminescence quantum yield (in Cc1ccccc1) of 0.18.
In the case of `c1ccc(-c2nc(-c3nc(-c4ccccc4)c(-c4ccccc4)o3)oc2-c2ccccc2)cc1`, the photoluminescence quantum yield (in C1COCCO1) is reported as 0.57.
`CC(C)[Si](C#Cc1c2ccc(C(C)(C)C)cc2c(C#Cc2c3ccc(C(C)(C)C)cc3c(C#Cc3c4ccc(C(C)(C)C)cc4c(C#C[Si](C(C)C)(C(C)C)C(C)C)c4ccc(C(C)(C)C)cc34)c3ccc(C(C)(C)C)cc23)c2ccc(C(C)(C)C)cc12)(C(C)C)C(C)C` showed a photoluminescence quantum yield (in Cc1ccccc1) of 0.022.
With `CCCC1(CCC)c2cc(-c3ccc(C(C)(C)C)cc3)ccc2-c2ccc(-c3ccc4c(c3)C(CCC)(CCC)c3cc(-c5ccc6c(c5)C(CCC)(CCC)c5cc(-c7ccc8c(c7)C(CCC)(CCC)c7cc(-c9ccc(C(C)(C)C)cc9)ccc7-8)ccc5-6)ccc3-4)cc21` the photoluminescence quantum yield (in C1CCCCC1) was 1.
With `Cn1cccc1-c1cc(C#N)ccc1C#N` the photoluminescence quantum yield (in C1CCOC1) was 0.139, the photoluminescence quantum yield (in CC#N) was 0.024 and the photoluminescence quantum yield (in CCCCCC) was 0.378. It also gave a photoluminescence quantum yield (in CCCCOCCCC) of 0.281 and a photoluminescence quantum yield (in CCOCC) of 0.206.
In the case of `FC(F)(F)c1ccc(-c2ccc(-c3cc(-c4ccccn4)nc(-c4ccccn4)c3)cc2)cc1`, the photoluminescence quantum yield (in ClCCl) is reported as 0.17.
With `CC1(C)c2ccccc2N(c2ccc(-c3nnc(-c4ccc(-n5c6ccccc6c6ccccc65)cc4)o3)cc2)c2ccccc21` the photoluminescence quantum yield (in O=P(c1ccccc1)(c1ccccc1)c1ccccc1Oc1ccccc1P(=O)(c1ccccc1)c1ccccc1) was 0.67.
For `O=C1/C(=C2\Sc3ccc(S(=O)(=O)Nc4ccccc4)cc3C2=O)Sc2ccc(S(=O)(=O)Nc3ccccc3)cc21`, the photoluminescence quantum yield (in C1COCCO1) was 0.358, the photoluminescence quantum yield (in CN(C)C=O) was 0.018 and the photoluminescence quantum yield (in CO) was 0.006. The photoluminescence quantum yield (in CS(C)=O) was 0.004.
Work on `CC(=O)c1ccc(-c2cc3c(ccc4sccc43)s2)cc1` yielded a photoluminescence quantum yield (in ClCCl) of 0.12.
In the case of `O=C(O)c1ccccc1Nc1cccc(C(F)(F)F)c1`, the photoluminescence quantum yield (in C1CCCCC1) is reported as 0.016, the photoluminescence quantum yield (in C1CCOC1) is reported as 0.016 and the photoluminescence quantum yield (in C1COCCO1) is reported as 0.026. The photoluminescence quantum yield (in CC#N) was 0.004, the photoluminescence quantum yield (in CCOC(C)=O) was 0.014 and the photoluminescence quantum yield (in CN(C)C=O) was 0.006. The photoluminescence quantum yield (in CO) was 0.001 and the photoluminescence quantum yield (in ClC(Cl)Cl) was 0.022.
